Earlier results as cited in patent US20080207644A1, “Therapeutic materials and methods” (priority 2006, published 2008).

Legend:
cancers = settings: for mouth sores as side effect: human studies; for results in human studies: single agents or combinations, treatment of a variety of cancers
[1] = 30 mg/kg oral
[2] = oral doses of 10-100 mg/kg
[3] = tested on: a variety of malignancies; settings: intravenous 0.7 to 1.3 mg/m^2/dose biweekly

SMILES	mouth sores as side effect (cancers)	results in human studies (cancers)	other results
CO[C@H]1C[C@@H]2CC[C@@H](C)[C@@](O)(O2)C(=O)C(=O)N2CCCC[C@H]2C(=O)O[C@H]([C@H](C)C[C@@H]2CC[C@@H](OC(=O)C(C)(CO)CO)[C@H](OC)C2)CC(=O)[C@H](C)/C=C(\C)[C@@H](O)[C@@H](OC)C(=O)[C@H](C)C[C@H](C)/C=C/C=C/C=C/1C [temsirolimus]	dose limiting toxicity	positive results	
COc1cccc2nc(-c3cccs3)nc(NN3C(=O)CC(C)C3=O)c12 (stereo not drawn) [SPC-839]			oral efficacy in a rat model [1]: oral efficacy
Cc1ccc2nc(NCCN)c3ncc(C)n3c2c1 [BMS-345541]			efficacy in mouse studies [2]: effective
CO[C@H]1C[C@@H]2CC[C@@H](C)[C@@](O)(O2)C(=O)C(=O)N2CCCC[C@H]2C(=O)O[C@H]([C@H](C)C[C@@H]2CC[C@@H](OP(C)(C)=O)[C@H](OC)C2)CC(=O)[C@H](C)/C=C(\C)[C@@H](O)[C@@H](OC)C(=O)[C@H](C)C[C@H](C)/C=C/C=C/C=C/1C [AP23573]	dose limiting toxicity	positive results	
CO[C@H]1C[C@@H]2CC[C@@H](C)[C@@](O)(O2)C(=O)C(=O)N2CCCC[C@H]2C(=O)O[C@H]([C@H](C)C[C@@H]2CC[C@@H](OCCO)[C@H](OC)C2)CC(=O)[C@H](C)/C=C(\C)[C@@H](O)[C@@H](OC)C(=O)[C@H](C)C[C@H](C)/C=C/C=C/C=C/1C [everolimus]	dose limiting toxicity	positive results	
CC(C)C[C@H](NC(=O)[C@H](Cc1ccccc1)NC(=O)c1cnccn1)B(O)O [Velcade]			activity against malignancies [3]: activities against a variety of malignancies
